Laboratory results: patent US4599352A, “Antineoplastic platinum (IV) complexes and compositions” (priority 1984, dated 1986)

Key:
[1] = tested on: IP L1210; experiment: Activity against IP-implanted L1210 leukemia sensitive to cisplatin, 30 day test (Table 3); type: in vivo, Female CD2Fl mice
Protocol: (§1) Biological properties of the compounds of the present invention were determined following the protocol described in Cancer Chemotherapy Reports, Vol. 3, No. 3, 1972 which report is incorporated herein by reference.
(§2) Other known mechanisms of resistance for other classes of agents, such as gene amplification or target enzyme change or amplication, also need to be explored. The experiments summarized in Table 3 were conducted at the same time against both sublines using the same drug preparations. […] These experiments were repeated in a second laboratory as documented in Table 4. However, in these experiments the animals were held for 60 rather than 30 days to evaluate whether or not long-term survivors are produced after drug treatment in a more challenging setting.
This experiment (A8-00005 3LE31) was conducted at the Southern Research Institute, Birmingham, Ala. under the supervision of Dr. Daniel Griswold. The protocols were the same as those published previously (Geran et al., Cancer Chemotherapy Reports 3: No. 2, 1972 [Attachment 11]). 10^5 cells were implanted intraperitoneally in CD2Fl male mice on Day 0. Drug treatments were given intraperitoneally as single injections at the doses indicated on Days 1, 5 and 9 after tumor implantation. The diluent was saline except for NSC-271674 where 5% sodium bicarbonate was used. All drugs were prepared fresh on the day of injection, and all were administered in solution. Median survival times for both control and drug-treated mice were determined and expressed as a percentage (% T/C). Body weights were determined on Day 5 and expressed as a weight difference (body weight of the drug-treated animals minus that of the control animals in grams) (T-C). The diluent control animals lived a median of 8.4 days and gained 1.9 grams by Day 5 in this experiment. All animals, including Day 30 survivors, were used in the calculation of median survival times. The log10 change in tumor burden refers to the net log change in viable tumor cell population at the end of therapy (Rx) as compared to the start of therapy; e.g., a […] means that there was a […] and a 3 log change means there was a 1000-fold increase in tumor burden at the end of therapy. The tumor burden at the start of therapy was about 6.1×10^5 cells in this experiment.
These experiments (A8-00008 3LE31 and A8-00001 3DP31) were conducted concurrently at the Southern Research Institute, Birmingham, Ala. under the supervision of Dr. Daniel Griswold. See Table 4 for experimental details. The diluent control animals bearing L1210 leukemia lived a median of 8.6 days and gained 1.3 grams by Day 5. […] Female CD2Fl mice were used for these experiments.

[2] = tested on: IP L1210/Cisplatin; experiment: Activity against IP-implanted L1210/Cisplatin leukemia resistant to cisplatin, 30 day test (Table 3); type: in vivo, Female CD2Fl mice
Protocol: as §1, §2
This experiment (A8-00005 3LE31) was conducted at the Southern Research Institute, Birmingham, Ala. under the supervision of Dr. Daniel Griswold. The protocols were the same as those published previously (Geran et al., Cancer Chemotherapy Reports 3: No. 2, 1972 [Attachment 11]). 10^5 cells were implanted intraperitoneally in CD2Fl male mice on Day 0. Drug treatments were given intraperitoneally as single injections at the doses indicated on Days 1, 5 and 9 after tumor implantation. The diluent was saline except for NSC-271674 where 5% sodium bicarbonate was used. All drugs were prepared fresh on the day of injection, and all were administered in solution. Median survival times for both control and drug-treated mice were determined and expressed as a percentage (% T/C). Body weights were determined on Day 5 and expressed as a weight difference (body weight of the drug-treated animals minus that of the control animals in grams) (T-C). The diluent control animals lived a median of 8.4 days and gained 1.9 grams by Day 5 in this experiment. All animals, including Day 30 survivors, were used in the calculation of median survival times. The log10 change in tumor burden refers to the net log change in viable tumor cell population at the end of therapy (Rx) as compared to the start of therapy; e.g., a […] means that there was a […] and a 3 log change means there was a 1000-fold increase in tumor burden at the end of therapy. The tumor burden at the start of therapy was about 6.1×10^5 cells in this experiment. […]

[Cl][Pt-2]1([Cl])([Cl])([Cl])[NH2+][C@@H]2CCCC[C@H]2[NH2+]1 [trans (l), (1R,2R)-Tetrachloro-trans-1,2-cyclohexanediammine platinum (IV)]
30 Day Survivors/Total ([1]; 1 mg/kg/dose): 0/6 | Approx. Log10 Change in Tumor Burden at End of RX ([1]; 1 mg/kg/dose): ~2.5 log10 | Median % T/C ([1]; 1 mg/kg/dose): 143% | 30 Day Survivors/Total ([1]; 2 mg/kg/dose): 1/6 | Approx. Log10 Change in Tumor Burden at End of RX ([1]; 2 mg/kg/dose): ~-0.4 log10 | Median % T/C ([1]; 2 mg/kg/dose): 197% | 30 Day Survivors/Total ([1]; 4 mg/kg/dose): 2/6 | Approx. Log10 Change in Tumor Burden at End of RX ([1]; 4 mg/kg/dose): ~-5.9 log10 | Median % T/C ([1]; 4 mg/kg/dose): 313% | 30 Day Survivors/Total ([1]; 8 mg/kg/dose): 4/6 | Approx. Log10 Change in Tumor Burden at End of RX ([1]; 8 mg/kg/dose): ~-5.9 log10 | Median % T/C ([1]; 8 mg/kg/dose): 348% | 30 Day Survivors/Total ([1]; 16 mg/kg/dose): 0/6 | Median % T/C ([1]; 16 mg/kg/dose): 93% | 30 Day Survivors/Total ([2]; 1 mg/kg/dose): 0/6 | Approx. Log10 Change in Tumor Burden at End of RX ([2]; 1 mg/kg/dose): ~2.8 log10 | Median % T/C ([2]; 1 mg/kg/dose): 118% | 30 Day Survivors/Total ([2]; 2 mg/kg/dose): 0/6 | Approx. Log10 Change in Tumor Burden at End of RX ([2]; 2 mg/kg/dose): ~2.5 log10 | Median % T/C ([2]; 2 mg/kg/dose): 137% | 30 Day Survivors/Total ([2]; 4 mg/kg/dose): 5/6 | Approx. Log10 Change in Tumor Burden at End of RX ([2]; 4 mg/kg/dose): ~-5.9 log10 | Median % T/C ([2]; 4 mg/kg/dose): 322% | 30 Day Survivors/Total ([2]; 8 mg/kg/dose): 5/6 | Approx. Log10 Change in Tumor Burden at End of RX ([2]; 8 mg/kg/dose): ~-5.9 log10 | Median % T/C ([2]; 8 mg/kg/dose): 322% | 30 Day Survivors/Total ([2]; 16 mg/kg/dose): 0/6 | Approx. Log10 Change in Tumor Burden at End of RX ([2]; 16 mg/kg/dose): ~3.1 log10 | Median % T/C ([2]; 16 mg/kg/dose): 89%

N[C@@H]1CCCC[C@H]1N.O=C([O-])c1ccc(C(=O)[O-])c(C(=O)[O-])c1.[H+].[Pt+2] [Carboxyphthalato Platinum, carboxyphthalatocyclohexanediamine platinum (II), reference compound]
30 Day Survivors/Total ([1]; 3.13 mg/kg/dose): 1/6 | Approx. Log10 Change in Tumor Burden at End of RX ([1]; 3.13 mg/kg/dose): ~1.4 log10 | Median % T/C ([1]; 3.13 mg/kg/dose): 174% | 30 Day Survivors/Total ([1]; 6.25 mg/kg/dose): 5/6 | Approx. Log10 Change in Tumor Burden at End of RX ([1]; 6.25 mg/kg/dose): ~-5.9 log10 | Median % T/C ([1]; 6.25 mg/kg/dose): 348% | 30 Day Survivors/Total ([1]; 12.5 mg/kg/dose): 6/6 | Approx. Log10 Change in Tumor Burden at End of RX ([1]; 12.5 mg/kg/dose): ~-5.9 log10 | Median % T/C ([1]; 12.5 mg/kg/dose): 348% | 30 Day Survivors/Total ([1]; 25 mg/kg/dose): 0/6 | Median % T/C ([1]; 25 mg/kg/dose): 73% | 30 Day Survivors/Total ([1]; 50 mg/kg/dose): 0/6 | Median % T/C ([1]; 50 mg/kg/dose): 50% | 30 Day Survivors/Total ([2]; 3.13 mg/kg/dose): 2/6 | Approx. Log10 Change in Tumor Burden at End of RX ([2]; 3.13 mg/kg/dose): ~2.4 log10 | Median % T/C ([2]; 3.13 mg/kg/dose): 139% | 30 Day Survivors/Total ([2]; 6.25 mg/kg/dose): 4/6 | Approx. Log10 Change in Tumor Burden at End of RX ([2]; 6.25 mg/kg/dose): ~-5.9 log10 | Median % T/C ([2]; 6.25 mg/kg/dose): 322% | 30 Day Survivors/Total ([2]; 12.5 mg/kg/dose): 4/6 | Approx. Log10 Change in Tumor Burden at End of RX ([2]; 12.5 mg/kg/dose): ~-5.9 log10 | Median % T/C ([2]; 12.5 mg/kg/dose): 322% | 30 Day Survivors/Total ([2]; 25 mg/kg/dose): 2/6 | Approx. Log10 Change in Tumor Burden at End of RX ([2]; 25 mg/kg/dose): ~-5.9 log10 | Median % T/C ([2]; 25 mg/kg/dose): 304% | 30 Day Survivors/Total ([2]; 50 mg/kg/dose): 1/6 | Median % T/C ([2]; 50 mg/kg/dose): 129% | Reduction in tumor burden over the course of therapy ([2]; L1210/Cisplatin): at least -5.9 logs | 30-day survivors ([2]; tolerated doses): three or more 30-day survivors
